Data as given in PubChem BioAssay (NCI).
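96-well plates; 48 h exposure; 5 concentrations. Endpoints by linear interpolation between flanking doses. Not reached: highest tested concentration assigned. TGI: concentration producing complete growth inhibition.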

Columns and labels:
Assay in all cases: NCI-60 cell line screen, 48 h
NCI/ADR-RES ovarian = tested on: NCI/ADR-RES ovarian
HOP-92 NSCLC = tested on: HOP-92 NSCLC
HCT-116 colon = tested on: HCT-116 colon
HCT-15 colon = tested on: HCT-15 colon
MDA-N = tested on: MDA-N
A549 NSCLC = tested on: A549 NSCLC
OVCAR-4 ovarian = tested on: OVCAR-4 ovarian
SNB-75 CNS = tested on: SNB-75 CNS
HL-60(TB) leukemia = tested on: HL-60(TB) leukemia
SK-MEL-5 melanoma = tested on: SK-MEL-5 melanoma
DU-145 prostate = tested on: DU-145 prostate
SK-MEL-28 melanoma = tested on: SK-MEL-28 melanoma
MALME-3M melanoma = tested on: MALME-3M melanoma
SF-539 CNS = tested on: SF-539 CNS
MDA-MB-435 = tested on: MDA-MB-435
EKVX NSCLC = tested on: EKVX NSCLC
BT-549 breast = tested on: BT-549 breast
MDA-MB-231 breast = tested on: MDA-MB-231 breast
TK-10 renal = tested on: TK-10 renal
SK-OV-3 ovarian = tested on: SK-OV-3 ovarian
OVCAR-8 ovarian = tested on: OVCAR-8 ovarian
T-47D breast = tested on: T-47D breast
ACHN renal = tested on: ACHN renal
NCI-H522 lung = tested on: NCI-H522 lung
COLO 205 colon = tested on: COLO 205 colon
A498 renal = tested on: A498 renal
K-562 leukemia = tested on: K-562 leukemia
SF-268 CNS = tested on: SF-268 CNS
NCI-H226 lung = tested on: NCI-H226 lung
UACC-62 melanoma = tested on: UACC-62 melanoma
LOX IMVI melanoma = tested on: LOX IMVI melanoma
UACC-257 melanoma = tested on: UACC-257 melanoma
SF-295 CNS = tested on: SF-295 CNS
RXF 393 renal = tested on: RXF 393 renal
CCRF-CEM leukemia = tested on: CCRF-CEM leukemia
NCI-H460 lung = tested on: NCI-H460 lung
MOLT-4 leukemia = tested on: MOLT-4 leukemia
CAKI-1 renal = tested on: CAKI-1 renal
SK-MEL-2 melanoma = tested on: SK-MEL-2 melanoma
RPMI-8226 leukemia = tested on: RPMI-8226 leukemia
NCI-H23 lung = tested on: NCI-H23 lung
SN12C renal = tested on: SN12C renal
HS 578T breast = tested on: HS 578T breast
HOP-62 NSCLC = tested on: HOP-62 NSCLC
U251 CNS = tested on: U251 CNS
KM12 colon = tested on: KM12 colon
UO-31 renal = tested on: UO-31 renal
IGROV1 ovarian = tested on: IGROV1 ovarian
SNB-19 CNS = tested on: SNB-19 CNS
M14 melanoma = tested on: M14 melanoma
PC-3 prostate = tested on: PC-3 prostate
SW-620 colon = tested on: SW-620 colon
786-0 renal = tested on: 786-0 renal
OVCAR-3 ovarian = tested on: OVCAR-3 ovarian
MCF7 breast = tested on: MCF7 breast
HT29 colon = tested on: HT29 colon
OVCAR-5 ovarian = tested on: OVCAR-5 ovarian
SR leukemia = tested on: SR leukemia

COc1cc(/C=C2\Cc3cc(OC)c(OC)cc3C2=O)cc(OC)c1
TGI (NCI/ADR-RES ovarian): > 100 µM | TGI (HOP-92 NSCLC): > 57.5 µM | TGI (HCT-116 colon): > 52.2 µM | TGI (HCT-15 colon): > 100 µM | TGI (MDA-N): 39.2 µM | TGI (A549 NSCLC): > 100 µM | TGI (OVCAR-4 ovarian): > 88.7 µM | TGI (SNB-75 CNS): > 100 µM | TGI (HL-60(TB) leukemia): > 100 µM | TGI (SK-MEL-5 melanoma): > 100 µM | TGI (DU-145 prostate): > 100 µM | TGI (SK-MEL-28 melanoma): > 100 µM | TGI (MALME-3M melanoma): > 100 µM | TGI (SF-539 CNS): > 42.7 µM | TGI (MDA-MB-435): > 100 µM | TGI (EKVX NSCLC): > 100 µM | TGI (BT-549 breast): 69.3 µM | TGI (MDA-MB-231 breast): > 100 µM | TGI (TK-10 renal): > 100 µM | TGI (SK-OV-3 ovarian): > 84.9 µM | TGI (OVCAR-8 ovarian): > 67.5 µM | TGI (T-47D breast): > 100 µM | TGI (ACHN renal): > 100 µM | TGI (NCI-H522 lung): > 100 µM | TGI (COLO 205 colon): > 100 µM | TGI (A498 renal): > 100 µM | TGI (K-562 leukemia): > 100 µM | TGI (SF-268 CNS): > 100 µM | TGI (NCI-H226 lung): > 100 µM | TGI (UACC-62 melanoma): > 89.4 µM | TGI (LOX IMVI melanoma): > 100 µM | TGI (UACC-257 melanoma): > 100 µM | TGI (SF-295 CNS): 41.7 µM | TGI (RXF 393 renal): 57.1 µM | TGI (CCRF-CEM leukemia): > 100 µM | TGI (NCI-H460 lung): 74.7 µM | TGI (MOLT-4 leukemia): > 100 µM | TGI (CAKI-1 renal): > 100 µM | TGI (SK-MEL-2 melanoma): > 100 µM | TGI (RPMI-8226 leukemia): > 100 µM | TGI (NCI-H23 lung): > 56.9 µM | TGI (SN12C renal): > 100 µM | TGI (HS 578T breast): > 100 µM | TGI (HOP-62 NSCLC): > 80.1 µM | TGI (U251 CNS): > 100 µM | TGI (KM12 colon): > 100 µM | TGI (UO-31 renal): > 100 µM | TGI (IGROV1 ovarian): > 100 µM | TGI (SNB-19 CNS): > 100 µM | TGI (M14 melanoma): > 100 µM | TGI (PC-3 prostate): > 100 µM | TGI (SW-620 colon): > 100 µM | TGI (786-0 renal): > 56.6 µM | TGI (OVCAR-3 ovarian): > 100 µM | TGI (MCF7 breast): > 100 µM | TGI (HT29 colon): > 100 µM | TGI (OVCAR-5 ovarian): > 100 µM

O=C(N/N=C/c1ccc(Cl)cc1)c1cc(I)cc(I)c1O
TGI (NCI/ADR-RES ovarian): > 100 µM | TGI (HOP-92 NSCLC): > 100 µM | TGI (HCT-116 colon): > 100 µM | TGI (HCT-15 colon): > 100 µM | TGI (MDA-N): > 100 µM | TGI (A549 NSCLC): > 100 µM | TGI (OVCAR-4 ovarian): > 100 µM | TGI (SNB-75 CNS): > 100 µM | TGI (HL-60(TB) leukemia): > 100 µM | TGI (SK-MEL-5 melanoma): > 100 µM | TGI (DU-145 prostate): > 100 µM | TGI (SK-MEL-28 melanoma): > 100 µM | TGI (SF-539 CNS): > 100 µM | TGI (MDA-MB-435): > 100 µM | TGI (EKVX NSCLC): > 100 µM | TGI (BT-549 breast): > 100 µM | TGI (MDA-MB-231 breast): > 100 µM | TGI (TK-10 renal): > 100 µM | TGI (SK-OV-3 ovarian): > 100 µM | TGI (OVCAR-8 ovarian): > 100 µM | TGI (T-47D breast): > 100 µM | TGI (ACHN renal): > 100 µM | TGI (COLO 205 colon): > 100 µM | TGI (A498 renal): > 100 µM | TGI (K-562 leukemia): > 100 µM | TGI (SR leukemia): > 100 µM | TGI (NCI-H226 lung): > 100 µM | TGI (LOX IMVI melanoma): > 100 µM | TGI (UACC-257 melanoma): > 100 µM | TGI (SF-295 CNS): > 100 µM | TGI (RXF 393 renal): > 100 µM | TGI (CCRF-CEM leukemia): > 100 µM | TGI (MOLT-4 leukemia): > 100 µM | TGI (CAKI-1 renal): > 100 µM | TGI (SK-MEL-2 melanoma): > 100 µM | TGI (RPMI-8226 leukemia): > 100 µM | TGI (NCI-H23 lung): > 100 µM | TGI (SN12C renal): > 100 µM | TGI (HOP-62 NSCLC): > 100 µM | TGI (U251 CNS): > 100 µM | TGI (KM12 colon): > 100 µM | TGI (UO-31 renal): > 100 µM | TGI (IGROV1 ovarian): > 100 µM | TGI (SNB-19 CNS): > 100 µM | TGI (M14 melanoma): > 100 µM | TGI (PC-3 prostate): > 100 µM | TGI (SW-620 colon): > 100 µM | TGI (786-0 renal): > 100 µM | TGI (OVCAR-3 ovarian): > 100 µM | TGI (MCF7 breast): > 100 µM | TGI (HT29 colon): > 100 µM | TGI (OVCAR-5 ovarian): > 100 µM
